Measurements taken from article PMC5297980 (Clinical Pharmacology in Drug Development, 2016).
Each block holds one molecule with its values, some of them ahead of it.

Experiments:
[1] = tested on: organic cation transporter 1 (OCT1); conditions: HEK293 cells, [^14C]tetraethylammonium bromide; ref data on file; cited from earlier work
[2] = tested on: multidrug and toxin extrusion 1 (MATE1); conditions: HEK293 cells, [^14C]metformin substrate; ref data on file; cited from earlier work
[3] = Phase 1 atorvastatin-isavuconazole interaction study, plasma PK; conditions: human, oral, 200 mg
[4] = tested on: organic anion‐transporting polypeptide 1B1 (OATP1B1); conditions: HEK293 cells, [^3H]estradiol 17β‐D‐glucuronide substrate; ref data on file; cited from earlier work
OAT3 = conditions: HEK293 cells, [^3H]estrone sulfate substrate; ref data on file; cited from earlier work
[5] = Phase 1 metformin-isavuconazole interaction study, plasma PK
[6] = Phase 1 methotrexate-isavuconazole interaction study, plasma PK; type: in vivo, human
[7] = tested on: organic anion transporter 1 (OAT1); conditions: HEK293 cells, [^3H]‐p‐aminohippuric acid substrate; ref data on file; cited from earlier work
OCT2 = conditions: HEK293 cells, [^14C]metformin substrate; ref data on file; cited from earlier work
[8] = Phase 1 digoxin-isavuconazole interaction study, plasma PK; type: in vivo, human
P‐gp = conditions: in vitro studies; cited from earlier work
[9] = OATP1B1 substrate; cited from earlier work
[10] = cited from earlier work
[11] = methotrexate + isavuconazole (day 8), mean (SD)
[12] = methotrexate + isavuconazole vs methotrexate alone
[13] = methotrexate alone (day 1), mean (SD)

SMILES: C[C@@H](c1nc(-c2ccc(C#N)cc2)cs1)[C@](O)(Cn1cncn1)c1cc(F)ccc1F [Isavuconazole, isavuconazole]
IC50 [1]: 3.74 µM
Ki [1]: 1.74 µM
IC50 [2]: 6.31 µM
AUC [3]: 77300 ng·h/mL
Cmax [3]: 5300 ng/mL
Tmax [3]: 3 h
IC50 [4]: 11.2 µM
IC50 (OAT3): > 10 µM
AUC ([5]; human, plasma, oral, 200 mg): 106000 ng·h/mL
Cmax ([5]; human, plasma, oral, 200 mg): 7100 ng/mL
Tmax ([5]; human, plasma, oral, 200 mg): 3 h
AUC ([6]; human, plasma, oral, 200 mg): 99400 ng·h/mL
Cmax ([6]; human, plasma, oral, 200 mg): 6200 ng/mL
Tmax ([6]; human, plasma, oral, 200 mg): 3 h
IC50 [7]: > 10 µM
IC50 (OCT2): 1.97 µM
Ki (OCT2): 0.69 µM
AUC ([8]; human, plasma, oral, 200 mg): 102000 ng·h/mL
Cmax ([8]; human, plasma, oral, 200 mg): 6100 ng/mL
Tmax ([8]; human, plasma, oral, 200 mg): 3 h

Mean AUClast higher in the presence vs absence of isavuconazole ([8]; digoxin study): 24%
Mean AUC∞ higher in the presence vs absence of isavuconazole ([8]; digoxin study): 25%
Mean Cmax higher in the presence vs absence of isavuconazole ([8]; digoxin study): 33%
AUC(0-t) ([8]; human, plasma, oral, 0.5 mg): 32.9 ng·h/mL
Cmax ([8]; human, plasma, oral, 0.5 mg): 1.6 ng/mL
half-life ([8]; human, plasma, oral, 0.5 mg): 40.9 h
AUC(0-inf) ([8]; human, plasma, po, 0.5 mg): 34.4 ng·h/mL
SMILES: C[C@H]1O[C@@H](O[C@H]2[C@@H](O)C[C@H](O[C@H]3[C@@H](O)C[C@H](O[C@H]4CC[C@@]5(C)[C@H](CC[C@@H]6[C@@H]5C[C@@H](O)[C@]5(C)[C@@H](C7=CC(=O)OC7)CC[C@]65O)C4)O[C@@H]3C)O[C@@H]2C)C[C@H](O)[C@@H]1O [Digoxin, digoxin]

SMILES: OC(Cn1cncn1)(Cn1cncn1)c1ccc(F)cc1F [fluconazole]
inhibition of P‐gp‐mediated active transport (P‐gp): not an inhibitor

SMILES: CCOc1cc(CC(=O)N[C@@H](CC(C)C)c2ccccc2N2CCCCC2)ccc1C(=O)O [repaglinide]
PK in the presence and absence of isavuconazole [9]: unchanged

AUC∞ ([6]; methotrexate 7.5 mg single oral dose alone (day 1), mean (SD)): 635.8 (309.3) h·ng/mL
AUClast [6, 11]: 683.2 (272.5) h·ng/mL
Cmax [6, 11]: 36.7 (14.0) ng/mL
t1/2 [6, 11]: 13.0 (2.3) h
Tmax ([6]; methotrexate + isavuconazole (day 8), median (range)): 6.0 (3.5‐10.0) h
AUClast geometric least‐squares mean ratio (90% confidence interval) [6, 12]: 124 (114, 135) %
AUC∞ geometric least‐squares mean ratio (90% confidence interval) [6, 12]: 129 (119, 141) %
Cmax geometric least‐squares mean ratio (90% confidence interval) [6, 12]: 115 (104, 127) %
AUClast [6, 13]: 554.6 (242.6) h·ng/mL
Cmax [6, 13]: 32.1 (13.4) ng/mL
t1/2 [6, 13]: 11.9 (2.9) h
Tmax ([6]; methotrexate alone (day 1), median (range)): 6.0 (5.0‐10.0) h
Mean AUClast higher during concomitant administration with isavuconazole ([6]; vs methotrexate alone): 24%
Mean AUC∞ higher during concomitant administration with isavuconazole ([6]; vs methotrexate alone): 29%
Mean Cmax higher during concomitant administration with isavuconazole ([6]; vs methotrexate alone): 15%
SMILES: CN(Cc1nc2c(N)nc(N)nc2[nH]c1=O)c1ccc(C(=O)N[C@@H](CCC(=O)O)C(=O)O)cc1 [7‐Hydroxymethotrexate, 7‐hydroxymethotrexate]

Cmax ([6]; human, plasma, oral, 7.5 mg): 156 ng/mL
Tmax ([6]; human, plasma, oral, 7.5 mg): 1 h
AUC(0-inf) ([6]; human, plasma, po, 7.5 mg): 620 ng·h/mL
Mean AUClast lower when coadministered with isavuconazole ([6]; vs methotrexate alone): 3%
Mean AUC∞ lower when coadministered with isavuconazole ([6]; vs methotrexate alone): 3%
Mean Cmax lower when coadministered with isavuconazole ([6]; vs methotrexate alone): 11%
SMILES: CN(Cc1cnc2nc(N)nc(N)c2n1)c1ccc(C(=O)N[C@@H](CCC(=O)O)C(=O)O)cc1 [Methotrexate, methotrexate]

AUC(0-t) ([5]; human, plasma, oral, 850 mg): 9120 ng·h/mL
Tmax ([5]; metformin + isavuconazole (day 8), median (range)): 2.0 (1.0‐4.0) h
Cmax ([5]; metformin alone (day 1), mean (SD)): 1467 (449) ng/mL
Tmax ([5]; metformin alone (day 1), median (range)): 2.5 (1.0‐6.0) h
AUC∞ ([5]; metformin hydrochloride 850 mg single oral dose alone (day 1), mean (SD)): 9303 (2543) h·ng/mL
Mean AUClast higher in the presence vs absence of isavuconazole ([5]; metformin study): 50%
Mean AUC∞ higher in the presence vs absence of isavuconazole ([5]; metformin study): 52%
Mean Cmax higher in the presence vs absence of isavuconazole ([5]; metformin study): 23%
SMILES: CN(C)C(=N)N=C(N)N [Metformin, metformin]

SMILES: CC[C@@H]([C@H](C)O)n1ncn(-c2ccc(N3CCN(c4ccc(OC[C@@H]5CO[C@@](Cn6cncn6)(c6ccc(F)cc6F)C5)cc4)CC3)cc2)c1=O [Posaconazole]
effect on plasma concentrations of digoxin ([10]; ref NOXAFIL package insert): increase plasma concentrations of digoxin

SMILES: CCC(C)n1ncn(-c2ccc(N3CCN(c4ccc(OCC5COC(Cn6cncn6)(c6ccc(Cl)cc6Cl)O5)cc4)CC3)cc2)c1=O (stereo not drawn) [itraconazole]
increase in plasma digoxin concentrations during coadministration [10]: approximately 80%
